From ChEMBL document CHEMBL4842342, “Amidoxime prodrugs convert to potent cell-active multimodal inhibitors of the dengue virus protease” (Eur J Med Chem, 2021)
Calls of active or inactive are those of the source. No cut-off for these calls is given here.

Experiments:
Genome polyprotein [1] = biological target: T1, Genome polyprotein (dengue virus type 2, UniProt P29990); test: Inhibition of DENV2 NS2B-NS3 protease
dengue virus type 2 [2] = test: Antiviral activity against Dengue virus 2 measured at 48 hrs post-infection; format: functional, organism-based
[3] = Cytotoxicity against monkey LLC-MK2 cells assessed as reduction in cell viability by MTT assay; format: cell-based, Macaca mulatta; details: rhesus monkey
Genome polyprotein [4] = biological target: T1, Genome polyprotein; test: Inhibition of DENV2 NS2B-NS3 protease assessed as inhibition of protease intermolecular processing
dengue virus type 2 [5] = test: Antiviral activity against Dengue virus 2 infected in human A549 cells assessed as reduction in viral titer production measured after 48 hrs by plaque reduction assay; format: functional, organism-based; details: A549, 48 h
dengue virus type 2 [6] = test: Antiviral activity against Dengue virus 2 EDEN2 infected in human Huh-7 cells; format: functional, organism-based; details: EDEN2, Huh-7
[7] = biological target: Genome polyprotein (dengue virus type 2) (UniProt P29990); test: Inhibition of NS2B-NS3 protease in DENV2 infected in human Huh-7 cells assessed as inhibition of NS3 internal cleavage site at 10 uM treated 6 hrs […] viral infection and measured at 30 hrs post-infection by western blot analysis; format: cell-based; details: time 24.0 hrs
dengue virus type 4 = test: Antiviral activity against DENV4; format: functional, organism-based
dengue virus type 2 [8] = test: Antiviral activity against DENV2; format: functional, organism-based
[9] = Cytotoxicity against human Huh-7 cells assessed as reduction in cell viability; format: cell-based
dengue virus type 2 [10] = test: Antiviral activity against DENV2 infected in human Huh-7 cells assessed as log reduction in intracellular viral RNA synthesis at 10 uM treated at 6 hrs post-viral infection and measured after 38 hrs by real time RT-PCR method; format: functional
dengue virus type 2 [11] = test: Antiviral activity against DENV2 infected in human Huh-7 cells assessed as reduction in intracellular viral RNA synthesis at 10 uM treated at 6 hrs post-viral infection and measured after 48 hrs by real time RT-PCR method; format: functional, organism-based
dengue virus type 2 [12] = test: Antiviral activity against DENV2 infected in human Huh-7 cells assessed as viral infection rate at 10 uM treated at 6 hrs post-viral infection and measured at 30 hrs post-infection by confocal microscopy (reference value: 50 to 60%); format: functional; details: time 24 hrs
Genome polyprotein [13] = biological target: T1, Genome polyprotein; test: Inhibition of NS2B-NS3 protease in DENV2 EDEN2 infected in human Huh-7 cells; format: cell-based
dengue virus type 1 = test: Antiviral activity against DENV1; format: functional, organism-based
dengue virus type 2 [14] = test: Antiviral activity against DENV2 D2Y10 virus infected in human PBMC cells in presence of 4G2 antibody; format: functional, organism-based
dengue virus type 3 = test: Antiviral activity against DENV3; format: functional, organism-based
dengue virus type 2 [15] = test: Antiviral activity against DENV2 infected in human Huh-7 cells assessed as log reduction in intracellular viral RNA synthesis at 10 uM treated at 6 hrs post-viral infection and measured after 12 hrs by real time RT-PCR method; format: functional
[16] = Cytotoxicity against human PBMC assessed as reduction in cell viability
dengue virus type 2 [17] = test: Antiviral activity against DENV2 infected in human Huh-7 cells assessed as log reduction in extracellular viral RNA synthesis at 10 uM treated at 6 hrs post-viral infection and measured after 48 hrs by real time RT-PCR method; format: functional
[18] = Dengue virus, 48 h, read-out: EC50

SMILES: COc1ccc(S(=O)(=O)n2c3ccc(-c4cccc(/C(N)=N/O)c4)cc3c3cc(-c4cccc(/C(N)=N/O)c4)ccc32)cc1
- IC50 (Genome polyprotein [1]): Not Active
- EC50 (dengue virus type 2 [2]; [18]): 9.6 µM

SMILES: N/C(=N\O)c1cccc(-c2ccc3c(c2)c2cc(-c4cccc(/C(N)=N/O)c4)ccc2n3Cc2ccc(F)cc2)c1
- EC50 (dengue virus type 2 [2]; [18]): 8.1 µM

SMILES: COc1cccc(Cn2c3ccc(-c4cccc(-c5noc(=O)[nH]5)c4)cc3c3cc(-c4cccc(-c5noc(=O)[nH]5)c4)ccc32)c1
- IC50 (Genome polyprotein [1]; read-out: IC50): 121 µM
- EC50 (dengue virus type 2 [2]; [18]): 14.5 µM

SMILES: O=C1c2c(O)ccc([N+](=O)[O-])c2C(=O)c2c([N+](=O)[O-])ccc(O)c21
- CC50 [3]: 69.4 µM
- IC50 (Genome polyprotein [4]): 432 µM

SMILES: N/C(=N\O)c1cccc(-c2ccc3c(c2)c2cc(-c4cccc(/C(N)=N/O)c4)ccc2n3S(=O)(=O)c2cccc(F)c2)c1
- EC50 (dengue virus type 2 [2]; [18]): 3.1 µM

SMILES: N/C(=N\O)c1cccc(-c2ccc3c(c2)c2cc(-c4cccc(/C(N)=N/O)c4)ccc2n3CCCCOc2ccc3ccc(=O)[nH]c3c2)c1
- EC50 (dengue virus type 2 [2]; [18]): 8.9 µM

SMILES: COc1ccc(S(=O)(=O)n2c3ccc(-c4cccc(/C(N)=N/O)c4)cc3c3cc(-c4cccc(/C(N)=N/O)c4)ccc32)c(OC)c1
- EC50 (dengue virus type 2 [2]; [18]): 1.8 µM

SMILES: N/C(=N\O)c1cccc(-c2ccc3c(c2)c2cc(-c4cccc(/C(N)=N/O)c4)ccc2n3S(=O)(=O)c2ccccc2Cl)c1
- EC50 (dengue virus type 2 [2]; [18]): 2.7 µM

SMILES: COc1ccc(Br)cc1S(=O)(=O)n1c2ccc(-c3cccc(/C(N)=N/O)c3)cc2c2cc(-c3cccc(/C(N)=N/O)c3)ccc21
- EC50 (dengue virus type 2 [2]; [18]): 4.9 µM

SMILES: N/C(=N\O)c1cccc(-c2ccc3c(c2)c2cc(-c4cccc(/C(N)=N/O)c4)ccc2n3CC(O)CS(=O)(=O)c2cccc(F)c2)c1 (configuration not stated)
- EC50 (dengue virus type 2 [2]; [18]): 8.7 µM

SMILES: COc1ccc(OC)c(S(=O)(=O)n2c3ccc(-c4cccc(/C(N)=N/O)c4)cc3c3cc(-c4cccc(/C(N)=N/O)c4)ccc32)c1
- EC50 (dengue virus type 2 [2]; [18]): 5.1 µM

SMILES: O=C1C=C/C(=N/Nc2ccc([N+](=O)[O-])cc2Cl)C=C1C(=O)Nc1cccc(Cl)c1
- EC50 (dengue virus type 2 [5]): 0.81 µM

SMILES: N/C(=N\O)c1cccc(-c2ccc3c(c2)c2cc(-c4cccc(/C(N)=N/O)c4)ccc2n3Cc2ccc3c(c2)OCO3)c1
- EC50 (dengue virus type 2 [2]; [18]): 5 µM

SMILES: N=C(N)c1cccc(-c2ccc3c(c2)c2cc(-c4cccc(C(=N)N)c4)ccc2n3S(=O)(=O)c2cccc(C(F)(F)F)c2)c1
- IC50 (Genome polyprotein [1]; read-out: IC50): 2.9 µM
- EC50 (dengue virus type 2 [2]; [18]): 7.3 µM

SMILES: N/C(=N\O)c1cccc(-c2ccc3c(c2)c2cc(-c4cccc(/C(N)=N/O)c4)ccc2n3S(=O)(=O)c2ccccc2Br)c1
- IC50 (Genome polyprotein [1]): Not Active
- EC50 (dengue virus type 2 [2]; [18]): 7.6 µM

SMILES: N/C(=N\O)c1cccc(-c2ccc3c(c2)c2cc(-c4cccc(/C(N)=N/O)c4)ccc2n3S(=O)(=O)c2ccccc2OC(F)(F)F)c1
- IC50 (Genome polyprotein [1]): Not Active
- EC50 (dengue virus type 2 [2]; [18]): 1.9 µM

SMILES: CCn1c2ccc(-c3cccc(/C(N)=N/O)c3)cc2c2cc(-c3cccc(/C(N)=N/O)c3)ccc21
- EC50 (dengue virus type 2 [2]; [18]): 1.5 µM

SMILES: COc1ccc(S(=O)(=O)n2c3ccc(-c4cccc(/C(N)=N/O)c4)cc3c3cc(-c4cccc(/C(N)=N/O)c4)ccc32)cc1F
- EC50 (dengue virus type 2 [2]; [18]): 2.7 µM

SMILES: N/C(=N\O)c1cccc(-c2ccc3c(c2)c2cc(-c4cccc(/C(N)=N/O)c4)ccc2n3S(=O)(=O)c2cccc(OC(F)(F)F)c2)c1
- IC50 (Genome polyprotein [1]): Not Active
- EC50 (dengue virus type 2 [2]; [18]): 7.7 µM

SMILES: Cn1c2ccc(-c3cccc(/C(N)=N/O)c3)cc2c2cc(-c3cccc(/C(N)=N/O)c3)ccc21
- EC50 (dengue virus type 2 [2]): Not Active

SMILES: COc1cccc(Cn2c3ccc(-c4cccc(C(=N)N)c4)cc3c3cc(-c4cccc(C(=N)N)c4)ccc32)c1
- IC50 (Genome polyprotein [1]; read-out: IC50): 2.71 µM
- EC50 (dengue virus type 2 [2]; [18]): 6.6 µM

SMILES: N/C(=N\O)c1cccc(-c2ccc3c(c2)c2cc(-c4cccc(/C(N)=N/O)c4)ccc2n3S(=O)(=O)c2cccc(Br)c2)c1
- EC50 (dengue virus type 2 [2]; [18]): 2.4 µM

SMILES: N/C(=N\O)c1cccc(-c2ccc3c(c2)c2cc(-c4cccc(/C(N)=N/O)c4)ccc2n3Cc2cccc(Br)c2)c1
- EC50 (dengue virus type 2 [6]): 1.1 µM
- inhibition [7]: Active
- EC50 (dengue virus type 4): 1.7 µM
- EC50 (dengue virus type 2 [8]): 1.4 µM
- CC50 [9]: > 100 µM
- log(activity) (dengue virus type 2 [10]): 2
- Activity (dengue virus type 2 [11]): inactive
- Activity (dengue virus type 2 [12]): 10%
- IC50 (Genome polyprotein [13]): 18 µM
- EC50 (dengue virus type 1): 5.9 µM
- EC50 (dengue virus type 2 [14]): 1.66 µM
- EC50 (dengue virus type 3): 5.1 µM
- log(activity) (dengue virus type 2 [15]): 2
- EC50 (dengue virus type 2 [2]; [18]): 1.1 µM
- CC50 [16]: > 100 µM
- log(activity) (dengue virus type 2 [17]): 3

SMILES: N/C(=N\O)c1cccc(-c2ccc3c(c2)c2cc(-c4cccc(/C(N)=N/O)c4)ccc2n3S(=O)(=O)c2ccccc2C(F)(F)F)c1
- EC50 (dengue virus type 2 [2]; [18]): 5.3 µM
